Source: PubChem BioAssay (NCI)
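1) Cells in 96-well plates. 2) Compound, 48 h, 5 concentrations. 3) Linear interpolation between surrounding doses. 4) Unreached endpoint = highest concentration. TGI marks complete inhibition of growth.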

Columns and labels:
Assay in all cases: NCI anticancer screen, dose series, 48 h
[1] = tested on: M14 melanoma
[2] = tested on: MDA-N
[3] = tested on: OVCAR-8 ovarian
[4] = tested on: DU-145 prostate
[5] = tested on: MDA-MB-231 breast
[6] = tested on: SK-MEL-2 melanoma
[7] = tested on: MALME-3M melanoma
[8] = tested on: HT29 colon
[9] = tested on: UO-31 renal
[10] = tested on: RPMI-8226 leukemia
[11] = tested on: HCT-116 colon
[12] = tested on: OVCAR-4 ovarian
[13] = tested on: NCI/ADR-RES ovarian
[14] = tested on: LOX IMVI melanoma
[15] = tested on: HCC-2998 colon
[16] = tested on: IGROV1 ovarian
[17] = tested on: EKVX NSCLC
[18] = tested on: HL-60(TB) leukemia
[19] = tested on: UACC-257 melanoma

For `CNC(=O)CCCNC(=O)CCCCC(=O)N(C)C`, the TGI [1] was > 100 µM, the TGI [2] was > 100 µM and the TGI [3] was > 100 µM. The TGI [4] was > 100 µM, the TGI [5] was > 100 µM and the TGI [6] was > 100 µM. For the same compound, the TGI [7] was > 100 µM, the TGI [8] was > 100 µM and the TGI [9] was > 100 µM. The TGI [10] was > 100 µM, the TGI [11] was > 100 µM and the TGI [12] was > 100 µM. For the same compound, the TGI [13] was > 100 µM.

`CC(=Nc1cccc(Cl)c1)c1ccncc1` was tested, and the TGI [1] was > 100 µM, the TGI [14] was > 100 µM and the TGI [2] was > 100 µM. The TGI [3] was > 100 µM, the TGI [4] was > 100 µM and the TGI [5] was > 100 µM. The TGI [6] was > 100 µM, the TGI [7] was > 100 µM and the TGI [15] was > 100 µM. For the same compound, the TGI [16] was > 100 µM, the TGI [8] was > 100 µM and the TGI [9] was > 100 µM. The TGI [17] was > 100 µM, the TGI [10] was > 100 µM and the TGI [11] was > 100 µM. For the same compound, the TGI [12] was > 100 µM and the TGI [13] was > 100 µM.

With `CC1=NN(C(=O)CC(=O)NC(=O)/C=C\c2ccccc2)C(=O)C1N=Nc1ccc([N+](=O)[O-])cc1` (stereo unspecified) the TGI [1] was > 100 µM, the TGI [14] was > 100 µM and the TGI [18] was > 100 µM. For the same compound, the TGI [2] was > 100 µM, the TGI [3] was > 100 µM and the TGI [4] was > 100 µM. The TGI [5] was > 100 µM, the TGI [7] was > 100 µM and the TGI [15] was > 100 µM. The TGI [16] was > 100 µM, the TGI [8] was > 100 µM and the TGI [9] was > 100 µM. The TGI [17] was > 100 µM, the TGI [10] was > 100 µM and the TGI [11] was > 100 µM. The TGI [13] was > 100 µM.

In the case of `CC(C)(C)[Si](C)(C)OCCc1ccccc1C1CC2(S(=O)(=O)c3ccccc3)ON1CC2S(=O)(=O)c1ccccc1` (stereo unspecified), the TGI [1] is reported as > 100 µM, the TGI [2] is reported as > 100 µM and the TGI [3] is reported as > 100 µM. The TGI [4] was > 100 µM, the TGI [5] was > 100 µM and the TGI [6] was > 100 µM. For the same compound, the TGI [15] was > 100 µM, the TGI [19] was > 100 µM and the TGI [16] was > 100 µM. The TGI [8] was > 100 µM, the TGI [9] was > 100 µM and the TGI [17] was > 100 µM. For the same compound, the TGI [11] was > 100 µM, the TGI [12] was > 100 µM and the TGI [13] was > 100 µM.

In the case of `O=C(/C=C/c1ccccc1)c1cc(C(=O)/C=C/c2ccccc2)c(O)cc1O`, the TGI [1] is reported as > 100 µM, the TGI [14] is reported as > 100 µM and the TGI [18] is reported as > 100 µM. For the same compound, the TGI [2] was > 100 µM, the TGI [3] was > 100 µM and the TGI [6] was > 100 µM. For the same compound, the TGI [7] was > 100 µM, the TGI [15] was > 100 µM and the TGI [19] was > 100 µM. The TGI [16] was > 100 µM, the TGI [8] was > 100 µM and the TGI [9] was > 100 µM. For the same compound, the TGI [17] was > 100 µM, the TGI [10] was > 100 µM and the TGI [11] was > 100 µM.

`COc1ccc(/C=C2\CCC(C)c3c2nc(N)c(C#N)c3-c2ccc(OC)c(OC)c2)cc1OC` (stereo unspecified) was tested, and the TGI [1] was > 100 µM, the TGI [14] was > 100 µM and the TGI [18] was > 100 µM. For the same compound, the TGI [2] was > 100 µM, the TGI [3] was > 100 µM and the TGI [4] was > 100 µM. For the same compound, the TGI [5] was > 100 µM, the TGI [6] was > 100 µM and the TGI [7] was > 100 µM. The TGI [19] was 75.5 µM, the TGI [16] was > 100 µM and the TGI [8] was > 100 µM. For the same compound, the TGI [9] was > 100 µM, the TGI [17] was 8.53 µM and the TGI [10] was > 100 µM. For the same compound, the TGI [11] was > 100 µM and the TGI [13] was > 100 µM.

`CN(C(=S)Cc1ccc(Cl)c(Cl)c1)C1CCCC[C@@H]1N1CCCC1` (stereo partly specified) was tested, and the TGI [1] was 37.2 µM, the TGI [18] was > 100 µM and the TGI [2] was 36.2 µM. The TGI [4] was > 100 µM, the TGI [5] was > 100 µM and the TGI [6] was > 100 µM. The TGI [8] was 45.5 µM, the TGI [9] was 48.8 µM and the TGI [17] was > 100 µM. The TGI [10] was > 100 µM, the TGI [11] was > 100 µM and the TGI [12] was > 100 µM. The TGI [13] was > 100 µM.
